Values after ≈ are worked out from the molar mass of the structure shown. Like-named read-outs stand apart in the source and are kept apart here.
Experiments:
[1] = test system: Proteus mirabilis MGH-1; assay: in vitro antibacterial activity, serial dilution (MIC); type: cell-based; conditions: MGH1
Experimental: (§1) The in vitro antibacterial activity was determined by conventional serial dilution procedures. Bacterial cultures were grown in tryptose phosphate broth or brain heart infusion broth (containing heat-inactivated normal horse serum for tests with S. pyogenes) overnight at 37° C. and subsequently diluted in double strength broth to provide bacterial inocula of about 2×10^5 cells/ml. Aqueous solutions of the compounds of the invention were prepared by dissolving the free acid form in 0.5 N sodium hydroxide. The solutions were diluted with sterile distilled water to 100 mcg/ml of compound in terms of the free acid. Serial two-fold dilutions of the compound stock solutions were prepared in water and 0.5 ml of each dilution was transferred to sets of tubes, one set for each bacterial inoculum. Each tube was then inoculated with 0.5 ml of the appropriate culture, resulting in a final bacterial concentration of about 1×10^5 cells/ml. The minimal inhibitory concentration (MIC), defined as the lowest concentration of the test compound to inhibit visible bacterial growth, was recorded after 18-20 hours of static incubation at 37° C.

[2] = test system: Escherichia coli Vogel; assay: as above; type: cell-based
Experimental: as §1

[3] = test system: Proteus vulgaris 9920; assay: as above; type: cell-based
Experimental: as §1

[4] = test system: Klebsiella pneumoniae 39645; assay: as above; type: cell-based
Experimental: as §1

[5] = test system: Escherichia coli Vogel; assay: in vivo antibacterial activity in mice infected with E. coli; parameters: species or system female mice; conditions: sc, 168 h
Experimental: (§2) The in vivo antibacterial activity of the compounds of the invention was determined in female mice, 18-20 grams each, by the following procedure:
(§3) Aqueous solutions of the compounds to be tested were prepared by dissolving the free acid form in dilute sodium hydroxide and diluting the solution with distilled water to the desired volume.
(§4) Cultures of Escherichia coli Vogel prepared in brain heart infusion broth, cultures of Klebsiella pneumoniae 39645 grown in tryptose phosphate broth with 5% rabbit serum diluted in the same broth were used to infect the mice as follows:
E coli: mice were inoculated intraperitoneally with 0.5 ml of the bacterial test inoculum (1.87×10^7 and 5×10^6 cells/ml respectively).
Mice infected with E. coli were medicated once (0.5 ml) one-half hour post infection, the test compound being administered by the subcutaneous (s.c.) route. Deaths were recorded daily for seven days.
(§5) Groups of ten animals each for four or five dose levels were thus treated and the number of survivors in each group recorded. The fifty percent protective dose values (PD50) were then calculated.

[6] = test system: Pseudomonas aeruginosa MGH-2; assay: in vitro antibacterial activity, serial dilution (MIC); type: cell-based; conditions: MGH2, 18-20 hours, 37° C., about 1×10^5 cells/ml, read-out: Minimal Inhibitory Concentration
Experimental: as §1

[7] = test system: Staphylococcus aureus Smith; assay: as above; type: cell-based; conditions: 18-20 hours, 37° C., about 1×10^5 cells/ml, read-out: Minimal Inhibitory Concentration
Experimental: as §1

[8] = test system: Streptococcus pyogenes C203; assay: as above; type: cell-based; conditions: broth with heat-inactivated normal horse serum, 18-20 hours, 37° C., read-out: Minimal Inhibitory Concentration
Experimental: as §1

[9] = test system: Klebsiella pneumoniae 39645; assay: in vivo antibacterial activity in mice infected with K. pneumoniae; parameters: species or system female mice; conditions: Klebsiella pneumoniae, 39645, sc, 336 h; K. pneumoniae intramuscularly; s.c. 17 h and 1 h preinfection, 6 h postinfection, twice a day next three days; fourteen days; read-out: Protective Dose (PD50)
Experimental: as §2, §3, §4
K. pneumoniae: mice were inoculated intramuscularly in the right hind leg with 0.2 ml of the bacterial test inoculum (2.05×10^4 cells/ml).
Mice infected with K. pneumoniae were medicated at the following times: seventeen hours and one hour preinfection, six hours postinfection and twice a day for the next three days. The test compound was administered by the subcutaneous (0.2 ml) route. Deaths were recorded daily for fourteen days.
as §5

[10] = Proteus mirabilis, P. mirab., in vitro, read-out: MIC
[11] = Escherichia coli, E. coli, in vitro, read-out: MIC
[12] = Proteus vulgaris, 9920, P. vulg., in vitro, read-out: MIC
[13] = Klebsiella pneumoniae 39645, 18-20 hours, 37° C., about 1×10^5 cells/ml, read-out: Minimal Inhibitory Concentration
[14] = Proteus mirabilis MGH-1, 18-20 hours, 37° C., about 1×10^5 cells/ml, read-out: Minimal Inhibitory Concentration
[15] = Escherichia coli Vogel, 18-20 hours, 37° C., about 1×10^5 cells/ml, read-out: Minimal Inhibitory Concentration
[16] = Proteus vulgaris 9920, 18-20 hours, 37° C., about 1×10^5 cells/ml, read-out: Minimal Inhibitory Concentration
[17] = E. coli intraperitoneally, single s.c. dose one-half hour post infection, seven days, read-out: Protective Dose (PD50)

SMILES	MIC [1, 10]	MIC [2, 11]	MIC [3, 12]	MIC ([4]; Klebsiella pneumoniae, 39645, K. pneum., in vitro, read-out: MIC)	ED50 ([5]; in vivo against E. coli, read-out: PD50)	MIC [6]	MIC [7]	MIC [8]	MIC [4, 13]	MIC [1, 14]	MIC [2, 15]	MIC [3, 16]	ED50 [5, 17]	ED50 [9]
Nn1cc(C(=O)O)c(=O)c2cc3c(cc21)OCO3 [Example 2, 5-Amino-5,8-dihydro-8-oxo-1,3-dioxolo[4,5-g]quinoline-7-carboxylic acid]	3.9 µg/mL (≈ 15.7 µM)	7.8 µg/mL (≈ 31.4 µM)	3.9 µg/mL (≈ 15.7 µM)	–	–	–	–	–	–	–	–	–	–	–
CN(C=O)n1cc(C(=O)O)c(=O)c2cc3c(cc21)OCO3 [Example 7, 5-[(Formyl)methylamino]5,8-dihydro-8-oxo-1,3-dioxolo[4,5-g]-quinoline-7-carboxylic acid]	7.8 µg/mL (≈ 26.9 µM)	31.3 µg/mL (≈ 108 µM)	15.6 µg/mL (≈ 53.8 µM)	15.6 µg/mL (≈ 53.8 µM)	40 mg/kg	–	–	–	–	–	–	–	–	–
CNn1cc(C(=O)O)c(=O)c2cc3c(cc21)OCO3 [Example 9, 5,8-Dihydro-5-(methylamino)-8-oxo-1,3-dioxolo[4,5-g]quinoline-7-carboxylic acid]	–	–	–	–	–	15.6 µg/mL (≈ 59.5 µM)	3.9 µg/mL (≈ 14.9 µM)	> 500 µg/mL	1 µg/mL (≈ 3.81 µM)	0.25 µg/mL (≈ 0.953 µM)	0.25 µg/mL (≈ 0.953 µM)	0.125 µg/mL (≈ 0.477 µM)	3.3 mg/kg	28 mg/kg
CCNn1cc(C(=O)O)c(=O)c2cc3c(cc21)OCO3 [Example 12, 5-(Ethylamino)-5,8-dihydro-8-oxo-1,3-dioxolo[4,5-g]quinoline-7-carboxylic acid]	–	–	–	–	–	> 62.5 µg/mL	> 15.6 µg/mL	> 62.5 µg/mL	1.95 µg/mL (≈ 7.06 µM)	1.95 µg/mL (≈ 7.06 µM)	1 µg/mL (≈ 3.62 µM)	0.25 µg/mL (≈ 0.905 µM)	7 mg/kg	50 mg/kg
CCCNn1cc(C(=O)O)c(=O)c2cc3c(cc21)OCO3 [Example 14, 5,8-Dihydro-8-oxo-5-(propylamino)-1,3-dioxolo[4,5-g]quinoline-7-carboxylic acid]	–	–	–	–	–	> 62.5 µg/mL	> 62.5 µg/mL	> 62.5 µg/mL	> 7.8 µg/mL	> 7.8 µg/mL	> 7.8 µg/mL	3.9 µg/mL (≈ 13.4 µM)	141 mg/kg	> 200 mg/kg
